What all share (assay type): cell-based, human
Assay [1] relates to MRC-5 cells. The experiment in a line: TGF-β1-induced collagen gel contraction assay. Particulars: 10 µM, 1 h pre-incubation, 6 h TGF-β1; compared to TGF-β1 alone. As for the experimental part: A collagen cell contraction assay was performed according to manufactures’ instructions (Cell Biolabs, INC., San Diego, CA, USA). Briefly, MRC-5 was harvested and mixed with a collagen solution. After polymerization, collagen gel lattices were cultured for two days, during which mechanical tension develops. Before releasing the stressed matrix, MRC-5 cells were pre-treated with study compounds (10 µM) for 1 h. Then collagen gels were gently released from the sides of the culture dishes and contraction in the presence of study compounds, and TGF-β1 was initiated. The collagen gel size was monitored at various time points and quantified with the Fiji ImageJ Software (National Institutes of Health, Bethesda, MD, USA, version 1.52q). The experiments were run three times.

For assay [2], the system named is MRC-5 cells. The experiment in a line: cAMP ELISA. To be noted: 10 µM, 30 min. The protocol: MRC-5 cells were seeded in standard culture medium for 24 h and then serum-starved for 2 h in HBSS. The study compounds (10 µM) were added to the MRC-5 cultures and after 30 min of incubation, the intracellular cAMP level in cell lysates was measured using a colorimetric cAMP ELISA Kit according to the manufacturer’s protocol (Cell Biolabs, INC., San Diego, CA, USA). Obtained results were normalized to total protein content in each sample. The experiments were run two times in duplicates.
(In general: In an ELISA, binding on a coated surface is turned into a signal by an enzyme label.)

Assay [3] concerns TGF-β1-induced MRC-5 cells. The experiment in a line: Protein kinase A activity. Particulars: 10 µM 30 min, then TGF-β1 30 min. As for the experimental part:
Protein Kinase A (PKA) activity in MRC-5 cells was determined using a PKA Colorimetric Activity Kit (Invitrogen, Carlsbad, CA, USA) according to the manufacturer’s protocol. MRC-5 cells were seeded in standard culture medium, and after 48 h they were serum-starved for 2 h in HBSS, followed by the addition of study compounds (10 µM) and incubation for 30 min. Finally, TGF-β1 was administered, and the samples were incubated for an additional 30 min. Whole cell lysates were used in the assay. The amount of PKA was normalized to the total protein content in each sample. The experiments were run two times in duplicates.

The test system of assay [4] is TGF-β1-induced MRC-5 cells. Put plainly: Western blot of p-CREB. To be noted: 10 µM. The protocol: Western Blot analysis was performed according to a standard protocol. Briefly, MRC-5 cells were pre-incubated with the study compounds (10 µM) for 1 h, followed by 48 h incubation with TGF-β1 and then lysed in RIPA buffer (RIPA Lysis and Extraction Buffer, Thermo Fisher Scientific, Waltham, MA, USA) and supplemented with protease inhibitor cocktail and phosphatase inhibitor cocktail (both from Sigma Aldrich, St. Louis, MO, USA). Equal amounts of protein (30 µg) were separated using 10% SDS-polyacrylamide gels and transferred onto polyvinylidene difluoride (PVDF) membranes (Thermo Fisher Scientific, Waltham, MA, USA). […] ROD was measured according to the NIH guidelines with Fiji ImageJ Software. […]
A general note: Immunoblotting shows a protein as a band on a membrane.

The test system of assay [5] is TGF-β1-induced MRC-5 cells. Put plainly: Immunofluorescence, nuclear localization of p-CREB. Particulars: 10 µM. As for the experimental part: For immunocytochemical labeling, MRC-5 cells were seeded on glass coverslips. Study compounds (10 µM) were added 1 h before TGF-β1 treatment, and analysis was performed after 1 h (p-Smad-2 and p-CREB detection) or 48 h (α-SMA detection) of incubation. Cells were fixed in methanol or 4% formaldehyde solution, permeabilized in 0.2% or 0.1% Triton X-100 solution (for p-Smad-2 and p-CREB or α-SMA, respectively). After incubation in blocking solution the following primary antibodies: rabbit polyclonal, anti-phospho-Smad-2 (Ser465, Ser467) antibody (#44-244G, Thermo Fisher Scientific, Waltham, MA, USA); rabbit polyclonal, anti-phospho-CREB1 (Ser133) antibody (#orb213775, Biorbyt, Cambridge, United Kingdom); mouse monoclonal, anti-α-SMA antibody (#MA5-11547, Thermo Fisher Scientific, Waltham, MA, USA) and secondary antibodies: goat anti-rabbit Alexa Fluor 546 conjugated antibody and goat anti-mouse Alexa Fluor 488 conjugated antibody (#A-11010 and #A-11001, respectively, Invitrogen, Carlsbad, CA, USA) were used. Nuclei were counterstained with Hoechst 33342 dye (Thermo Fisher Scientific, Waltham, MA, USA). Slides were mounted in ProLong™ Glass Antifade Mountant (Invitrogen, Carlsbad, CA, USA) and analyzed using Leica DMiL LED Fluo microscope (for α-SMA and p-CREB visualization, 40× objective) or Leica DMi8 with Thunder Imaging System (for p-Smad-2 visualization, 40× objective), all equipped with LAS-X Software (Leica Microsystems GmbH, Wetzlar, Germany). Experiments were run four times using five randomly selected fields of view, at the same fluorescent time exposure and in a blind-folded manner.

From PMC7312375, “A Novel, Pan-PDE Inhibitor Exerts Anti-Fibrotic Effects in Human Lung Fibroblasts via Inhibition of TGF-β Signaling and Activation of cAMP/PKA Signaling” (International Journal of Molecular Sciences, 2020) come the findings set out here.

The structures appear in SMILES notation.

In the case of `C=C[C@@]1(C)CC(=O)[C@]2(O)[C@@]3(C)[C@@H](O)CCC(C)(C)[C@@H]3[C@H](O)[C@H](OC(C)=O)[C@@]2(C)O1` [forskolin, reference compound], the “size of collagen gel lattices (TGF-β1-induced contraction)” value in assay [1] is “showed similar properties as 145 or IBMX”. The “increase in cAMP level compared to control” value in assay [2] was determined as 5.7 fold. In addition, the “Protein kinase A activity in TGF-β1-induced fibroblasts” value in assay [3] is “the highest”. In assay [4], the “CREB phosphorylation (immunoblot)” value was “increased CREB phosphorylation”. Besides, in assay [5], the “elevation of fraction of MRC-5 cells with nuclear p-CREB localization” value was 76%.
